Assay results from patent US12458677B2, “Method for preparing Gynostemma pentaphyllum leaf extract and Gynostemma pentaphyllum leaf extract prepared thereby” (BIONIC TRADING CORPORATION, priority 2022, dated 2025).

What was measured:
Atrogin-1 = Atrogin-1 mRNA expression (RT-PCR) in TNF-α-treated L6 myotubes; assay type: cell-based; settings: TNF-α 50 ng/ml alone, 6 hours
Protocol: (§1) L6 myoblasts (ATCC) were seeded onto a 6-well plate at 2×10^5 cell/mL and then cultured in DMEM (Hyclone) containing 10% FBS (Hyclone). When the cell density reached about 80-85%, the L6 cells were differentiated into myotubes by removing the medium from the well and replacing with DMEM (Hyclone) containing 2% HS (Hyclone). The differentiation was conducted for a total of 6 days while replacing with a fresh medium every other day. After the differentiation, the Gynostemma pentaphyllum leaf extract of Examples or Comparative Example was dissolved in DMEM containing 50 ng/mL of TNF-α to a concentration of 40 μg/mL and treated to the cells. 6 hours later, total RNAs were isolated using a TRIzol reagent (Takara, Osaka, Japan). The isolated total RNAs were quantified using NanoDrop 1000 (Thermo Fisher Scientific Inc., Waltham, MA, USA). 16 μL of the quantified RNAs were mixed with a reverse transcriptase premix (ELPIS-Biotech) and cDNAs were synthesized under the condition of 55 minutes at 42° C. and 15 minutes at 70° C. using a PCR machine (Gene Amp PCR System 2700; Applied Biosystems, Foster City, CA, USA). […]

MuRF-1 = MuRF-1 mRNA expression (RT-PCR) in TNF-α-treated L6 myotubes; assay type: cell-based; settings: TNF-α 50 ng/ml alone, 6 hours
Protocol: as §1

Substance: TNF-α
- Atrogin-1 (% of control group) (Atrogin-1): 248.5 ± 26.4 % of control group
- MuRF-1 (% of control group) (MuRF-1): 411.5 ± 32.7 % of control group
